Experiment [1] deals with T1, Mu-type opioid receptor (Homo sapiens, UniProt P35372). As to the kind of experiment: Agonist activity at mu opioid receptor (unknown origin) expressed CHO cells assessed as stimulation of [35S]-GTP[gammaS] binding. The format is cell-based.
For experiment [2], the target named is T1, Mu-type opioid receptor. Kind of experiment: Agonist activity at mu opioid receptor (unknown origin) expressed CHO cells assessed as stimulation of [35S]-GTP[gammaS] binding relative to DAMGO. The format is cell-based. (In general: GTPγS resists hydrolysis and so accumulates on activated G proteins.)
Experiment [3] is filed under the species Homo sapiens. As to the kind of experiment: Selectivity ratio of Ki for delta opioid receptor (unknown origin) to Ki for mu opioid receptor (unknown origin).
Experiment [4] is filed under the species Homo sapiens. As to the kind of experiment: Selectivity ratio of Ki for kappa opioid receptor (unknown origin) to Ki for mu opioid receptor (unknown origin).
For experiment [5], the target named is T1, Mu-type opioid receptor. As to the kind of experiment: Agonist activity at mu opioid receptor (unknown origin) expressed CHO cells assessed as stimulation of [35S]-GTP[gammaS] binding at 10 uM relative to DAMGO. The format is cell-based.
For experiment [6], the target named is T1, Mu-type opioid receptor. As to the kind of experiment: Antagonist activity at mu opioid receptor (unknown origin) expressed CHO cells assessed as inhibition of [35S]-GTP[gammaS] binding. The format is cell-based.

Activity calls are given as the source filed them. No cut-off for these calls is given here.

For orientation: EC50 means the concentration at which the effect is half-maximal. As a reminder, the Emax is the greatest response seen or fitted, relative to the assay's reference.

T1 sequence (P35372 whole entry): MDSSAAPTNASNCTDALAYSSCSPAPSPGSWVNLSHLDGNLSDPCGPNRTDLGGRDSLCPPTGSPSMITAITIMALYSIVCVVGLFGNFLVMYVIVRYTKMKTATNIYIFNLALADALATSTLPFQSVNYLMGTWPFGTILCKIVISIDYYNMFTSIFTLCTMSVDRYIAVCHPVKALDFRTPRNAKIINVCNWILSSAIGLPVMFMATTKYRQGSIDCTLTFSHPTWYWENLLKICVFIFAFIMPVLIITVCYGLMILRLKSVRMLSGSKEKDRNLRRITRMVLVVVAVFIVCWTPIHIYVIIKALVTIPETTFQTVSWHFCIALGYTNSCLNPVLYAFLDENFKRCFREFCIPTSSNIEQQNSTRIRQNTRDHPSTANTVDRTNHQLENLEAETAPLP

With `O=C(N[C@@]12CCC(=O)[C@@H]3Oc4c(O)ccc5c4[C@@]31CCN(CC1CC1)[C@@H]2C5)c1ccc2ccccc2n1`, the EC50 on Mu-type opioid receptor [1] came out at 38.8 nM. For the same compound, at Mu-type opioid receptor [2], the Emax was 34.4%. Besides, the Ratio Ki came out at 1.7 in the experiment filed under Homo sapiens [3] and 0.03 in the experiment filed under Homo sapiens [4].

As for `O=C(N[C@@]12CCC(=O)[C@@H]3Oc4c(O)ccc5c4[C@@]31CCN(CC1CC1)[C@@H]2C5)c1ccccc1`, the EC50 at Mu-type opioid receptor [1] was 7.2 nM. Further, the Emax on Mu-type opioid receptor [2] is 5.79%. For the same compound, the Ratio Ki in the experiment listed under Homo sapiens [3] was 13; in the experiment listed under Homo sapiens [4], 0.03.

As to `O=C(N[C@@]12CCC(=O)[C@@H]3Oc4c(O)ccc5c4[C@@]31CCN(CC1CC1)[C@@H]2C5)c1ccncc1`, on Mu-type opioid receptor [1], the EC50 was 1.67 nM. In addition, the Emax on Mu-type opioid receptor [2] amounted to 7.74%. Further, the results for the Ratio Ki in the experiment filed under Homo sapiens [3] and in the experiment filed under Homo sapiens [4] were 13 and 0.4, respectively.

As to `O=C(N[C@@]12CCC(=O)[C@@H]3Oc4c(O)ccc5c4[C@@]31CCN(CC1CC1)[C@@H]2C5)c1cccnc1`, the Emax on Mu-type opioid receptor [5] was found to be 5.09%. Moreover, the results for the Ratio Ki in the experiment listed under Homo sapiens [3] and in the experiment listed under Homo sapiens [4] were 53 and 0.21, respectively. In addition, the inhibition result at Mu-type opioid receptor [6] was “Active”.

Take `O=C(N[C@@]12CCC(=O)[C@@H]3Oc4c(O)ccc5c4[C@@]31CCN(CC1CC1)[C@@H]2C5)c1cnc2ccccc2c1`: the EC50 at Mu-type opioid receptor [1] was determined as 2.81 nM. Also, at Mu-type opioid receptor [2], the Emax was 15.8%. In addition, the results for the Ratio Ki in the experiment filed under Homo sapiens [3] and in the experiment listed under Homo sapiens [4] were 1.3 and 0.12, respectively.

In the case of `O=C(N[C@@]12CCC(=O)[C@@H]3Oc4c(O)ccc5c4[C@@]31CCN(CC1CC1)[C@@H]2C5)c1ccccn1`, the Emax on Mu-type opioid receptor [5] was 0.9%. Besides, the Ratio Ki stood at 63 in the experiment listed under Homo sapiens [3] and 0.24 in the experiment listed under Homo sapiens [4]. Further, the inhibition entry at Mu-type opioid receptor [6] is “Active”.

In the case of `O=C(N[C@@]12CCC(=O)[C@@H]3Oc4c(O)ccc5c4[C@@]31CCN(CC1CC1)[C@@H]2C5)c1cc2ccccc2cn1`, the Emax on Mu-type opioid receptor [5] came to 2.84%. Further, the Ratio Ki amounted to 7.2 in the experiment filed under Homo sapiens [3] and 0.07 in the experiment listed under Homo sapiens [4]. Besides, the inhibition result on Mu-type opioid receptor [6] is “Active”.

For `O=C(N[C@@]12CCC(=O)[C@@H]3Oc4c(O)ccc5c4[C@@]31CCN(CC1CC1)[C@@H]2C5)c1ccc2ccccc2c1`, the EC50 at Mu-type opioid receptor [1] was 11.1 nM. Further, the Emax on Mu-type opioid receptor [2] turned out to be 16.5%. Moreover, the Ratio Ki in the experiment listed under Homo sapiens [3] was determined as 1.7; in the experiment listed under Homo sapiens [4] it was 0.05.

As to `COc1cccc2c1[C@]13CCN(CC4CC4)[C@H](C2)[C@]1(OC)CCC(=O)C3`, the values for the Ratio Ki in the experiment filed under Homo sapiens [3] and in the experiment listed under Homo sapiens [4] were 40 and 45, respectively.

(Values after ChEMBL document CHEMBL2396652 (Bioorg Med Chem Lett, 2013).)
